Experimental data reported in US20260209152A1, “Substituted Hydroxystilbene Compounds and Derivatives, Synthesis and Uses Thereof” (Kynan Duke IP, LLC, priority 2019, published 2026).
pIC50: −log10 of the molar value. Where two headings read alike, the source gives them in different places.

How the values were obtained:
[1] = test system: GBM patient sample BNB18; assay: Ex vivo GBM 3D spheroid drug response (CellTiter-Glo 3D); format: cell-based, human; conditions: 3D spheroids, 4 days post drug treatment
Source text: (§1) This project involves an ex vivo drug response screen for 3 ROKiT Pharma test agents and Temozolomide in 3 previously dissociated and cryopreserved GBM samples.
(§2) • 2.1 Three previously processed GBM patient samples were chosen to be used in this study.

[2] = test system: GBM patient sample BNB04; assay: as above; format: cell-based, human; conditions: Homo sapiens, 96 h, 3D spheroids; 4 days post drug treatment
Source text: as §1, §2

[3] = test system: GBM patient sample BNA99; assay: as above; format: cell-based, human; conditions: 3D spheroids, 4 days post drug treatment
Source text: as §1, §2

[4] = test system: Tongue CAL 27; assay: CellTiter Glo cell viability assay; format: cell-based, human; conditions: for pIC50: Homo sapiens
Experimental: (§3) 1.7*10^3 cells/well were seeded in quadruplicates in 96-well plate after plating. Drugs were added at 5 μM and 2-fold dilutions over 18 concentrations (0.000038146-5 […] range) to generate a dose-response curve. Cell growth was assessed on day 1, 3 and 5 after drug treatments using the CellTiter Glo Luminescence Cell Viability Assay (Promega) according to manufacturer's protocol. Thermo Scientific Varioskan LUX Multimode Microplate instrument was used for plate reading. Data are expressed as mean luminescence (arbitrary units) ±S.D.
(§4) Cell Viability Assays were employed to determine the concentration of Compound 1 (KYN-001) and analogues where the response is reduced by half. For each treatment of cancer cells, 1, 2, 5, 10 and 20 μM solutions of compounds were applied. GraphPad Prism 7 software was used to fit dose response curves. Relative Luminescence Units were plotted against the log values of the doses used and the nonlinear regression model was used for data analysis.
(§5) The protocol for cell proliferation was optimized for Compound 8 (KYN-119) to enable a more accurate assessment of its low IC50 value. In this protocol, 18 dosages (2 fold dilutions ranging from 0.000038146 to 5 μM) were applied to cells seeded in 96-well plates, and Luminescence was measured after 1, 3 and 5 days upon treatments.

[5] = test system: Pancreatic PANC-1; assay: CellTiter Glo cell viability assay; format: cell-based, human; conditions: for pIC50: Homo sapiens
Experimental: as §3, §4, §5

[6] = test system: Osteosarcomas SAOS-2; assay: CellTiter Glo cell viability assay; format: cell-based, human; conditions: for pIC50: Homo sapiens
Experimental: as §3, §4, §5

[7] = test system: Colon SW_480; assay: CellTiter Glo cell viability assay; format: cell-based, human; conditions: for pIC50: Homo sapiens
[8] = test system: Cancer cells including pancreatic, bladder, kidney, colon, breast, lung, liver and osteosarcomas; assay: CellTiter Glo cell viability assay, panel of cancer cell lines; format: cell-based, human
Procedure, shortened: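 Cells (1.7*10^3/well) were seeded in quadruplicate and treated with 2-fold dilutions over 18 concentrations up to 5 μM, or with 1, 2, 5, 10 and 20 μM. Viability was read by CellTiter Glo luminescence on days 1, 3 and 5; half-maximal concentrations came from nonlinear regression of RLU versus log dose.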

[9] = test system: Kidney ACHN; assay: CellTiter Glo cell viability assay; format: cell-based; conditions: Homo sapiens; ACHN/CRL-1611; 11 dilutions 3-0.00001 μM
[10] = test system: Bladder RT4; assay: CellTiter Glo cell viability assay; format: cell-based; conditions: Homo sapiens
Experimental: as §3, §4, §5

[11] = test system: Kidney 769-P; assay: CellTiter Glo cell viability assay; format: cell-based; conditions: Homo sapiens
Experimental: as §3, §4, §5

[12] = test system: Rhabomyosarcoma A-204; assay: CellTiter Glo cell viability assay; format: cell-based; conditions: Homo sapiens
Experimental: as §3, §4, §5

[13] = test system: Muscle Ewing's Sarcoma A-673/CRL-1598; assay: CellTiter Glo cell viability assay; format: cell-based; conditions: Homo sapiens, A673, 11 dilutions 3-0.00001 μM
Experimental: as §3, §4
(§6) IC50 (μM) values correspond to log(inhibitor) vs. response (four parameters) and dose-response graphs were generated using GraphPad Prism8.

[14] = test system: Colon cancer SW620/CCL-227; assay: CellTiter Glo cell viability assay; format: cell-based; conditions: Homo sapiens, SW-620, 11 dilutions 3-0.00001 μM
Experimental: as §3, §4, §6

[15] = test system: Liver cancer SNU-449/CRL-2234; assay: CellTiter Glo cell viability assay; format: cell-based; conditions: Homo sapiens, 11 dilutions 3-0.00001 μM
Experimental: as §3, §4, §6

[16] = test system: Neuroblastoma CHP-212/CRL-2273; assay: CellTiter Glo cell viability assay; format: cell-based; conditions: Homo sapiens, 11 dilutions 3-0.00001 μM
Experimental: as §3, §4, §6

[17] = test system: Neuroblastoma BE(2)-C/CRL-2268; assay: CellTiter Glo cell viability assay; format: cell-based; conditions: Homo sapiens, 11 dilutions 3-0.00001 μM
Experimental: as §3, §4, §6

[18] = test system: Colon cancer HT-29/HTB-38; assay: CellTiter Glo cell viability assay; format: cell-based; conditions: Homo sapiens, 11 dilutions 3-0.00001 μM
Experimental: as §3, §4, §6

[19] = test system: Osteosarcoma MG-63/CRL-1427; assay: CellTiter Glo cell viability assay; format: cell-based; conditions: Homo sapiens, 11 dilutions 3-0.00001 μM
Experimental: as §3, §4, §6

[20] = test system: Neuroblastoma SK-N-DZ/CRL-2149; assay: CellTiter Glo cell viability assay; format: cell-based; conditions: Homo sapiens, 11 dilutions 3-0.00001 μM
Experimental: as §3, §4, §6

[21] = test system: Neuroblastoma SK-N-FI/CRL-2142; assay: CellTiter Glo cell viability assay; format: cell-based; conditions: Homo sapiens, 11 dilutions 3-0.00001 μM
Experimental: as §3, §4, §6

[22] = CAL-27, 72 h, 3 Days of treatment, 18 2-fold dilutions 5-0.00003 μM, read-out: Average IC50
[23] = CAL 27/CRL-2095, 11 dilutions 3-0.00001 μM, read-out: IC50
[24] = PANC-1, 72 h, 3 Days of treatment, 18 2-fold dilutions 5-0.00003 μM, read-out: Average IC50
[25] = PANC-1/CRL-1469, 11 dilutions 3-0.00001 μM, read-out: IC50
[26] = SAOS-2, 72 h, 3 Days of treatment, 18 2-fold dilutions 5-0.00003 μM, read-out: Average IC50
[27] = Saos-2/HTB-85, 11 dilutions 3-0.00001 μM, read-out: IC50
[28] = SW480, 72 h, 3 Days of treatment, 18 2-fold dilutions 5-0.00003 μM, read-out: Average IC50
[29] = SW480/CCL-228, 11 dilutions 3-0.00001 μM, read-out: IC50
[30] = RT4/HTB-2, 11 dilutions 3-0.00001 μM, read-out: IC50
[31] = 769-P/CRL-1933, 11 dilutions 3-0.00001 μM, read-out: IC50
[32] = A204, A-204/HTB-82, 11 dilutions 3-0.00001 μM, read-out: IC50
[33] = IC50 of 1 [KYN-001] vs 8 [KYN-119], 3 Days

SMILES	pIC50 ([1]; Homo sapiens, 96 h)	pIC50 [2]	pIC50 ([3]; Homo sapiens, 96 h)	pIC50 [4, 23]	pIC50 [5, 25]	pIC50 [6, 27]	pIC50 [7, 29]	pIC50 [9]	pIC50 [10, 30]	pIC50 [11, 31]	pIC50 [12, 32]	pIC50 [13]	pIC50 [14]	pIC50 [15]	pIC50 [16]	pIC50 [17]	pIC50 [18]	pIC50 [19]	pIC50 [20]	pIC50 [21]	further results
COc1cc(/C=C/c2cc(O)cc(OC)c2CC=C(C)C)ccc1O [Compound 1, (E)-3-(4-hydroxy-3-methoxystyryl)-5-methoxy-4-(3-methylbut-2-en-1-yl)phenol]	5.88	4.96	4.83	7.05	6.96	6.76	6.65	6.62	5.86	6.44	6.70	6.33	6.92	7.09	7.55	7.17	5.81	7.36	6.88	6.94	pIC50 [4, 22]: 7.25; pIC50 [5, 24]: 6.97; pIC50 [6, 26]: 6.96; pIC50 [7, 28]: 6.75; pIC50 ([7]; SW480, 72 h, Day 3 upon drug treatment, 10 dosages 0.0001-20 μM, read-out: IC50): 6.53; Effect on cell viability on Day 1 ([8]; Day 1 upon treatment at dosages <1 μM): neither 1 nor 8 affect cell viability; pIC50 ([8]; Homo sapiens, comparative study on 83 cancer cell lines (Table 3), read-out: IC50 values in the range, towards the cell lines listed in the text): 7.00 to 8.00
CCOc1cc(O)cc(/C=C/c2ccc(O)c(OC)c2)c1CC=C(C)C [Compound 8, (E)-3-Ethoxy-5-(4-hydroxy-3-methoxystyryl)-4-(3-methylbut-2-en-1-yl)phenol]	–	–	–	7.51	7.50	7.10	6.96	7.12	6.01	6.96	7.17	6.80	7.45	7.49	8.01	7.59	6.03	7.74	7.30	7.58	pIC50 [4, 22]: 7.42; Fold IC50 [4, 33]: 1.5; pIC50 [5, 24]: 7.94; Fold IC50 [5, 33]: 9.3; pIC50 [6, 26]: 7.81; Fold IC50 [6, 33]: 7.2; pIC50 [7, 28]: 7.75; Fold IC50 [7, 33]: 10; Average fold (8 [KYN-119] more potent than 1 [KYN-001]) ([8]; 83 cancer cell lines, Table 3): 10; pIC50 ([10]; 72 h, 3 Days of treatment, 18 2-fold dilutions 5-0.00003 μM, read-out: Average IC50): 5.78; pIC50 ([11]; 769-P, 72 h, 3 Days of treatment, 18 2-fold dilutions 5-0.00003 μM, read-out: Average IC50): 7.47; pIC50 ([12]; A204, 72 h, 3 Days of treatment, 18 2-fold dilutions 5-0.00003 μM, read-out: Average IC50): 7.51
CCOc1cc(O)cc(/C=C/c2ccc(O)c(O)c2)c1CC=C(C)C [Compound 20, (E)-4-(3-Ethoxy-5-hydroxy-2-(3-methylbut-2-en-1-yl)styryl)benzene-1,2-diol]	5.34	4.63	4.72	7.39	7.38	6.89	6.80	7.08	5.70	6.76	6.88	6.51	6.99	7.19	7.58	7.26	5.70	7.50	6.85	7.31	–
COc1cc(/C=C/c2cc(O)cc(OC)c2CC=C(C)C)ccc1NC=O [Compound 27, (E)-N-(4-(5-hydroxy-3-methoxy-2-(3-methylbut-2-en-1-yl)styryl)-2-methoxyphenyl)formamide]	6.20	5.37	5.05	7.82	7.54	7.37	7.05	7.57	6.34	6.96	7.28	6.64	7.50	7.82	8.24	7.87	6.37	7.08	7.49	7.80	pIC50 [1]: 6.20; pIC50 [3]: 5.05
CCOc1cc(O)cc(/C=C/c2ccc(NC=O)c(OC)c2)c1CC=C(C)C [Compound 28, (E)-N-(4-(3-Ethoxy-5-hydroxy-2-(3-methylbut-2-en-1-yl)styryl)-2-methoxyphenyl)formamide]	–	–	–	8.30	7.75	7.63	7.52	7.73	6.33	7.40	7.60	6.95	7.74	7.99	8.52	7.95	6.49	8.32	7.79	8.01	Cancer cell viability inhibition, statement in words ([8]; SAR discussion based on IC50 values in Tables 1 to 5, compared with 1 [KYN-001]): much enhanced inhibition
